Like-named read-outs stand apart in the source and are kept apart here. Where a SMILES comes first, the peptide text is derived from it. Where no end group is shown, it is not given here.
What was measured:
ERBIN PDZ domain = ERBIN PDZ domain (Homo sapiens, UniProt Q96RT1); assay: Competition ELISA, ERBIN PDZ-GST binding to immobilized biotinylated peptide; design: made in house; host or cells: E. coli; conditions: for fold less potent than Ac-WETWV (SEQ ID NO:225): Alanine scanning of WETWV peptide; for fold less potent than Ac-GWETWV: ERBIN peptide truncations with N-terminal acylation
Procedure: Binding affinities of the peptides for the ERBIN PDZ domain were determined as IC50 values using competition ELISAs. […] Assay plates were prepared by coating Maxisorp plates overnight at 4° C. with 65 μl of a 2 μg/ml solution of neutravidin in PBS. The plates were then blocked through addition of 65 μl of a 1% solution of bovine serum albumin (BSA) in PBS for 1 hour at room temperature, then washed 10 times with PBS containing 0.05% Tween-20. 65 μl of the amino-terminally biotinylated peptide PDZ 501 (TGWETWV; SEQ ID NO:222) was then added at a concentration of 100 nM in PBS with 0.5% BSA and 0.05% Tween-20 and incubated for 1 hour at room temperature. Simultaneously, binding reactions consisting of serial dilutions of the test compounds in PBS with 0.5% BSA and 0.05% Tween-20 containing 2 μg/ml ERBIN PDZ-GST fusion protein were incubated for 1 hour at room temperature. The plate coated with the immobilized peptide was again washed 10 times before 65 μl of each binding reaction was added to a well and incubated for 15 minutes at room temperature. The plates were again washed 10 times before being developed by incubating for 30 minutes with a 1:1000 dilution of anti-mouse HRP conjugated antibody and a 1:2000 dilution of a mouse anti-GST antibody in PBS with 0.5% BSA and 0.05% Tween-20. The plates were washed 10 times, then incubated with 100 μl HRP substrate for 5 minutes and the color developed through addition of 100 μl of 1 M H3PO4. The plates were read at 450 nm and the absorption fit to a binding curve using a least squares fit.
Binding affinities of the peptides for the ERBIN PDZ domain were determined as IC50 values using competition ELISAs. […] Assay plates were prepared by coating microwell plates overnight with neutravidin. The plates were then blocked through addition of BSA, and then amino-terminally biotinylated WETWV (SEQ ID NO:225) was then bound to the plates. Simultaneously, binding reactions consisting of serial dilutions of the test peptides with ERBIN PDZ-GST fusion proteins were performed. The plate coated with the immobilized WETWV (SEQ ID NO:225) was extensively washed before adding each binding reaction to the wells and briefly incubated. After further washing, anti-mouse HRP conjugated antibody and a mouse anti-GST antibody were added. The plates were then developed with HRP substrate and H3PO4, and then read at 450 nm. The absorption fit to a binding curve using a least squares fit. Thus the ability of the various peptides to inhibit ERBIN PDZ domain from binding its cognate was measured. […]

[1] = target: GST-MAGI-3 PDZ 2 (aa. 584-707 of SEQ ID NO:200) (human) [GST: P08515]; assay: competition ELISA: peptide blocks GST-PDZ binding to immobilized peptide
Erbin PDZ = target: T1, Erbin PDZ (Homo sapiens, UniProt Q96RT1); assay: IC50 (nM) | Erbin PDZ | 2 nM | PDZ501 | Bio-Ac-GGWETWV (SEQ ID NO 687) | 37 nM
T1 construct: made in house; host or cells: E. coli
Procedure: (§1) Table printed on a drawing sheet, Fig. 12
(§2) The patent's description of the figure: FIG. 12. IC50 values indicating binding affinities of various peptides to PDZ domains
(§3) First copying reader's note: The first column (three lines per block: protein, accession, PDZ domain) is treated as one cell spanning its block; an empty ruled row above the IC50/SD head is left out; #### cells are spreadsheet overflow marks as printed; several heads and cells are cut off at the left by the print (ample, eptide No, EQ ID NO).
Where the first naming reader finds the target: head: IC50 (nM) | Erbin PDZ | 2 nM | PDZ501

hZO1 PDZ1 = target: T2, hZO1 PDZ1 (Homo sapiens, UniProt Q07157); assay: IC50 (nM) | hZO1 PDZ1 | 5 nM | B01-88 | Bio-GGWRWTTWL (SEQ ID NO 684) | 36 nM
T2 construct: Human ZO1 (NM_003257) PDZ1; GST; made in house
Procedure: as §1
Head of the field: IC50 (nM) | hZO1 PDZ1 | 5 nM | B01-88 | Bio-GGWRWTTWL (SEQ ID NO 684) | 36 nM
as §2, §3
Where the first naming reader finds the target: head: IC50 (nM) | hZO1 PDZ1 | 5 nM | B01-88

[2] = target: ERBIN PDZ-GST fusion protein (aa. 1217-1371 of SEQ ID NO:201) (human) [GST: P08515]; assay: competition ELISA: ERBIN PDZ-GST binding to immobilized biotin-WETWV
[3] = target: ERBIN PDZ-GST fusion protein (aa. 1217-1371 of SEQ ID NO:201) (human, UniProt P08515 1-218 = GST); assay: as above
[4] = Substitutions for tryptophan at the −1 position
[5] = Substitutions for threonine at the −2 position and glutamate at the −3 position
[6] = ERBIN peptide truncations without N-terminal acylation

Chain of ERBIN PDZ-GST fusion protein (aa. 1217-1371 of SEQ ID NO:201) (human) [GST: P08515] (P08515 whole entry, the tested form may be a part): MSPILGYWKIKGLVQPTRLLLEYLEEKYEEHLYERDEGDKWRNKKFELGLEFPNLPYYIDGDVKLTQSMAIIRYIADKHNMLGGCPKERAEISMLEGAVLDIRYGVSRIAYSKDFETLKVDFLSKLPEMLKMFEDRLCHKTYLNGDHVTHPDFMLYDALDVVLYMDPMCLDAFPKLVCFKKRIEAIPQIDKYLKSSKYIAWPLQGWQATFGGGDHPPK
Chain of ERBIN PDZ-GST fusion protein (aa. 1217-1371 of SEQ ID NO:201) (P08515 whole entry, the tested form may be a part): as above
T2 sequence (Q07157 23-110): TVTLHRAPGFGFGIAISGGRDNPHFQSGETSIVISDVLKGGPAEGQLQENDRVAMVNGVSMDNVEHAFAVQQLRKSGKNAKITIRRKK
T1 sequence (Q96RT1 1258-1412): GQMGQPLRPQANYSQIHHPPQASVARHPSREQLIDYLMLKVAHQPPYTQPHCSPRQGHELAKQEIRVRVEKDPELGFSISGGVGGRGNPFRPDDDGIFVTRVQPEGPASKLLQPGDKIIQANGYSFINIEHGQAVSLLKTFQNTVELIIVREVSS
Chain of ERBIN PDZ domain (Q96RT1 1258-1412): as above
Chain of GST-MAGI-3 PDZ 2 (aa. 584-707 of SEQ ID NO:200) (human) [GST: P08515] (P08515 whole entry): as the sequence (P08515 whole entry, the tested form may be a part) above

For Ac-WETFV [Ac-WETFV], the IC50 (ERBIN PDZ domain) was 14.5 µM and the “fold less potent than Ac-WETWV” value (ERBIN PDZ domain; [4]) was 295 fold.

In the case of Ac-WETYV [Ac-WETYV], the IC50 (ERBIN PDZ domain) is reported as 42.5 µM and the “fold less potent than Ac-WETWV” value (ERBIN PDZ domain; [4]) is reported as 86.7 fold.

With Ac-WDTWV [Ac-WDTWV] the IC50 (ERBIN PDZ domain) was 1.7 µM and the “fold less potent than Ac-WETWV” value (ERBIN PDZ domain; [5]) was 3.4 fold.

Molecule HTQITKV (peptide) has an IC50 [1] of 200 µM.

Work on “Ac-WRHTTWL [11 | 01-29, EQ ID NO 650 N^AC-WRHTTWL]” yielded an IC50 (Erbin PDZ) of 52400 nM and an IC50 (hZO1 PDZ1) of 35 ± 5 nM.

In the case of “Ac-WGWTTWL [12 | 01-30, EQ ID NO 651 N^AC-WGWTTWL]”, the IC50 (Erbin PDZ) is reported as 35500 nM and the IC50 (hZO1 PDZ1) is reported as 47 ± 4 nM.

Ac-WETWV [Ac-WETWV] was tested, and the IC50 (ERBIN PDZ domain) was 0.5 µM, the “fold less potent than Ac-WETWV (SEQ ID NO:225)” value (ERBIN PDZ domain) was 1 fold and the “fold less potent than Ac-GWETWV” value (ERBIN PDZ domain) was 0.5 fold. For the same molecule, the “fold less potent than Ac-WETWV” value (ERBIN PDZ domain; [5]) was 1 fold and the “fold less potent than Ac-WETWV” value (ERBIN PDZ domain; [4]) was 1 fold.

Ac-WEVWV [Ac-WEVWV] was tested, and the IC50 (ERBIN PDZ domain) was 4.8 µM and the “fold less potent than Ac-WETWV” value (ERBIN PDZ domain; [5]) was 9.8 fold.

Molecule Ac-WV (peptide) has an IC50 [2] of 77.8 µM and a fold less potent than Ac-GWETWV [2] of 78.7 fold.

“Ac-KETWL [20 | 01-05, SEQ ID NO 659 N^AC-KETWL]” gave an IC50 (Erbin PDZ) of 19800 nM and an IC50 (hZO1 PDZ1) of 12600 nM.

Molecule “Ac-YSRSQYV [16 | 01-95, SEQ ID NO 655 N^AC-YSRSQYV]” has an IC50 (hZO1 PDZ1) of 4620 nM.

Ac-AETWV [Ac-AETWV] was tested, and the IC50 (ERBIN PDZ domain) was 4 µM and the “fold less potent than Ac-WETWV (SEQ ID NO:225)” value (ERBIN PDZ domain) was 8.2 fold.

In the case of Ac-WETNapV (peptide), the IC50 [2] is reported as 0.6 µM and the fold less potent than Ac-WETWV [2] is reported as 1.1 fold.

Ac-GWETWV [Ac-GWETWV] was tested, and the IC50 (ERBIN PDZ domain) was 0.9 µM and the “fold less potent than Ac-GWETWV” value (ERBIN PDZ domain) was 1.0 fold.

In the case of H-GWETWV [H1N-GWETWV], the IC50 (ERBIN PDZ domain) is reported as 1.4 µM and the “fold less potent than H1N -GWETWV” value (ERBIN PDZ domain; [6]) is reported as 1.0 fold.

For `CC(C)[C@H](NC(=O)[C@H](Cc1c[nH]c2ccccc12)NC(=O)[C@@H](N)[C@@H](C)O)C(=O)O` [H1N -TWV] (H-Thr-Trp-Val-OH; C-terminus assumed), the “fold less potent than H1N -GWETWV” value (ERBIN PDZ domain; [6]) was 73.6 fold and the IC50 (ERBIN PDZ domain; ERBIN peptide truncations without N-terminal acylation, read-out: IC50) was 105 µM.

With Ac-WEAWV [Ac-WEAWV] the IC50 (ERBIN PDZ domain) was 12.4 µM and the “fold less potent than Ac-WETWV (SEQ ID NO:225)” value (ERBIN PDZ domain) was 25.3 fold.

H-WETWV-OH [H1N -WETWV] showed an IC50 [2] of 0.2 µM and a fold less potent than H1N -GWETWV [2] of 0.2 fold.

Molecule Ac-WETWV [Ac-WETWV] has an IC50 [2] of 0.5 µM, a fold less potent than Ac-GWETWV [2] of 0.5 fold and a fold less potent than Ac-WETWV [2] of 1 fold.

H-ETWV-OH [H1N -ETWV] was tested, and the IC50 [2] was 16.5 µM and the fold less potent than H1N -GWETWV [2] was 11.5 fold.

Molecule H-GWETWV-OH [H1N-GWETWV] has an IC50 [2] of 1.4 µM and a fold less potent than H1N -GWETWV [2] of 1 fold.

In the case of Ac-WATWV [Ac-WATWV], the IC50 [3] is reported as 14.8 µM and the “fold less potent than Ac-WETWV” value [3] is reported as 30.3 fold.

Work on Ac-GWETWV [Ac-GWETWV] yielded an IC50 [2] of 0.9 µM and a fold less potent than Ac-GWETWV [2] of 1 fold.

Ac-ETWV [Ac-ETWV] showed an IC50 [2] of 4.9 µM and a fold less potent than Ac-GWETWV [2] of 5.1 fold.

In the case of Ac-WEAWV [Ac-WEAWV], the IC50 [3] is reported as 12.4 µM and the “fold less potent than Ac-WETWV” value [3] is reported as 25.3 fold.

For Ac-AETWV [Ac-AETWV], the IC50 [3] was 4 µM and the “fold less potent than Ac-WETWV” value [3] was 8.2 fold.

Source: patent US20030148264A1, “Phage displayed PDZ domain ligands” (GENENTECH, INC., priority 2001, published 2003)
